The values below come from patent US5081112A, “Method for treating hyperlipidemia” (Otsuka Pharmaceutical Factory Inc., priority 1986, dated 1992).

Test [1] deals with biosynthetic pathway of cholesterol. The test can be described thus: inhibitory effect in biosynthetic pathway of cholesterol. It is filed as biochemical. The conditions noted are these: 10^-4 M; rat liver microsomes and soluble fraction; 90 min, 100 µM. Here is the method:
Test for determining inhibitory effect in biosynthetic pathway of cholesterol
Each one of the test compounds was added to rat liver microsomes fraction (containing 0.2 mg of protein) and soluble fraction (containing 2 mg of protein), then the volume of the mixture was adjusted to 100 microliters by adding 0.1 M-potassium phosphate buffer solution (pH 7.4), then this mixture was incubated at 37° C. for 10 minutes.
After the incubation, the reaction was started by adding 200 microliters of a solution containing 1 mM ATP, 10 mM glucose-1-phosphate, 6 mM glutathione, 6 mM MgCl2, […], 0.25 mM […], 0.25 mM NADP, and 1 mM [1-^14 C] sodium acetate (3.0 mCi/mM).
The whole mixture was incubated at 37° C. for 90 minutes, then the reaction was terminated by adding […] of 15%-KOH (a 95% ethanol solution), next 2 mg of cholesterol was added thereto, saponified at 75° C. for 1 hour, and cholesterol was extracted with petroleum ether, the extract was concentrated to dryness. To the residue thus obtained was added with 2.5 ml of a mixture of acetone-diethyl ether (1:1) and 2.5 ml of 1%-digitonin (a 50% ethanol solution), then this solution was allowed to stand for 1 hour in cooling condition by using ice-water to precipitate cholesterol. The precipitate was washed with acetone, a mixture of acetonediethyl ether (1:1) and diethyl ether in this order, then the radioactivity of the residue was measured by using a liquid scintillation counter.
Control test was also conducted by the procedures similar to those mentioned above in the test group, except that each one of the test compounds was not used.
Inhibitory effect in biosynthetic pathway of cholesterol performed by each one of the test compounds was calculated, in terms of inhibitory ratio (%), from the formula on the basis of the radioactivity of the control group as follows: [formula] (wherein
[c] is a radioactivity of the control group, and
[d] is a radio activity of the test group).
A general note: Liver microsomes are a subcellular fraction often used to study metabolism.

In test [2] the test system is Triton WR-1339-induced hyperlipidemia in rat. Kind of test: antilipotropic effect in Triton WR-1339-induced hyperlipidemia in rat. Format: in vivo, Wistar-strain male rats. Particulars: 50 mg/kg oral, vs control. An excerpt:
Wistar-strain male rats of 5-9 week age were used as test animals. One test group consisting of six (6) rats.
[a] is a determined value obtained from the control group, and
[b] is a determined value obtained from the test group).

Where [3] appears, read: 24 hours after Triton WR-1339 (400 mg/kg, tail vein), read-out: lowering ratio of serum triglycerides, 24 hours after Triton WR-1339.
[4] abbreviates: 24 hours after Triton WR-1339 (400 mg/kg, tail vein), read-out: lowering ratio of total serum cholesterol, 24 hours after Triton WR-1339.
[5] abbreviates: 48 hours after Triton WR-1339 (400 mg/kg, tail vein), read-out: lowering ratio of serum triglycerides, 48 hours after Triton WR-1339.
Where [6] appears, read: 48 hours after Triton WR-1339 (400 mg/kg, tail vein), read-out: lowering ratio of total serum cholesterol, 48 hours after Triton WR-1339.

Read-outs that look alike come from different tables or passages of the source.

Consider `CCOP(=O)(OCC)C(C)c1ccc(C(=O)N(CCc2ccccc2)Cc2ccccc2)cc1` (centres unmarked) [compound 62], for which the “Inhibitory ratio of cholesterol biosynthesis” value (shortened to “Inhibitory ratio”) in test [1] worked out at 80.2%.

Consider `CCOP(=O)(Cc1ccc(C(=O)N(c2ccc(Cl)cc2)C2CCCC2)cc1)OCC` [compound 15], for which the inhibition in vivo at 50 mg/kg in test [2] (setting [3]) turned out to be 23%; in test [2] (setting [4]), 9.8%; in test [2] (setting [5]) it was 55.8%; in test [2] (setting [6]) it was 22.6%.

As to `CCOP(=O)(Cc1ccc(C(=O)N(Cc2ccc(C)cc2)c2ccccc2)cc1)OCC` [compound 37], the “Inhibitory ratio” value in test [1] is 82.8%.

For `CCOP(=O)(Cc1ccc(C(=O)Nc2ccc(Cl)c(C(F)(F)F)c2)cc1)OCC` [compound 9], the inhibition in vivo at 50 mg/kg in test [2] (setting [3]) amounted to 11.3%; in test [2] (setting [4]), 11.7%; in test [2] (setting [5]), 68.4%; in test [2] (setting [6]), 42.3%.

In the case of `CCOP(=O)(Cc1ccc(C(=O)N(Cc2ccc(Cl)cc2)c2ccc(Cl)cc2)cc1)OCC` [compound 21], the inhibition in vivo at 50 mg/kg turned out to be 47.9% in test [2] (setting [3]), 15.9% in test [2] (setting [4]), 89.1% in test [2] (setting [5]) and 52.3% in test [2] (setting [6]).

For the molecule `CCOP(=O)(Cc1ccc(C(=O)N(CCc2ccccc2)c2ccccc2)cc1)OCC` [compound 42], the “Inhibitory ratio” value in test [1] is 86.7%.

Consider `CCCCCCCCN(C(=O)c1ccc(CP(=O)(OCC)OCC)cc1)c1ccccc1` [compound 33], for which the “Inhibitory ratio” value in test [1] is on record as 89.6%.

On to `CCOP(=O)(Cc1ccc(C(=O)N2CCN(c3ccc(OC)cc3)CC2)cc1)OCC` [compound 59], for which, in test [1], the “Inhibitory ratio” value amounted to 55.1%.

On to `CCOP(=O)(Cc1ccc(C(=S)N(C)c2ccccc2)cc1)OCC` [compound 67], for which the “Inhibitory ratio” value in test [1] was determined as 32.5%.

`CCOP(=O)(Cc1ccc(C(=O)N2CCN(c3cccc(C(F)(F)F)c3)CC2)cc1)OCC` [compound 60]: the “Inhibitory ratio” value in test [1] is 24.9%.

As to `CCOP(=O)(Cc1ccc(C(=O)NCCc2ccc(OC)c(OC)c2)cc1)OCC` [compound 30], in test [1], the “Inhibitory ratio” value turned out to be 28.9%.

Turning to `CCOP(=O)(Cc1ccc(C(=O)N(c2ccccc2)C2CCCCC2)cc1)OCC` [compound 35], in test [1], the “Inhibitory ratio” value amounted to 39.2%.

As to `CCOP(=O)(Cc1ccc(C(=O)Nc2ccc(C#N)cc2)cc1)OCC` [compound 19], the inhibition in vivo at 50 mg/kg in test [2] (setting [3]) was found to be 90.5%; in test [2] (setting [4]), 60.6%; in test [2] (setting [5]) it was 94.7%; in test [2] (setting [6]) it was 63.6%.

As to `CCOP(=O)(Cc1ccc(C(=O)N2CCN(Cc3ccccc3)CC2)cc1)OCC` [compound 61], the “Inhibitory ratio” value in test [1] was found to be 58.3%.

As to `CCOP(=O)(Cc1ccccc1C(=O)N(Cc1ccc(C#N)cc1)c1ccc(OC)cc1)OCC` [compound 25], the “Inhibitory ratio” value in test [1] turned out to be 20.1%.

As to `CCOP(=O)(Cc1ccc(C(=O)N(C)Cc2ccccc2)cc1)OCC` [compound 43], the “Inhibitory ratio” value in test [1] stood at 23.8%.

Take `CCCCCCCCC(c1ccc(C(=O)N(CCCCCCCC)c2ccccc2)cc1)P(=O)(OCC)OCC` (centres unmarked) [compound 34]: the “Inhibitory ratio” value in test [1] was determined as 85.2%.

In the case of `CCOP(=O)(Cc1ccc(C(=O)Nc2ccc(OC)cc2)cc1)OCC` [compound 23], the inhibition in vivo at 50 mg/kg is 25.5% in test [2] (setting [3]), 17.3% in test [2] (setting [4]), 27.6% in test [2] (setting [5]) and 32.5% in test [2] (setting [6]).

As to `CCOP(=O)(Cc1ccc(C(=O)N(Cc2ccc(OC)cc2)c2ccccc2)cc1)OCC` [compound 38], the “Inhibitory ratio” value in test [1] was found to be 85.2%.

Consider `CCOP(=O)(Cc1ccc(C(=O)Nc2ccccc2Br)cc1)OCC` [compound 55], for which the “Inhibitory ratio” value in test [1] stood at 57.1%.

On to `CCOP(=O)(Cc1ccc(C(=O)N(Cc2ccccc2)c2ccc(C#N)cc2)cc1)OCC` [compound 49], for which the “Inhibitory ratio” value in test [1] is 75.2%.

Consider `CCOP(=O)(Cc1ccc(C(=O)N(Cc2ccc([N+](=O)[O-])cc2)c2ccccc2)cc1)OCC` [compound 39], for which the “Inhibitory ratio” value in test [1] stood at 74.6%.

Turning to `CCOP(=O)(Cc1cccc(C(=O)N(c2ccccc2)c2ccc(C(=O)OC)cc2)c1)OCC` [compound 24], the “Inhibitory ratio” value in test [1] worked out at 21.6%.

For the molecule `CCOP(=O)(Cc1ccc(C(=O)N(Cc2ccccc2)C(C)C)cc1)OCC` [compound 44], in test [1], the “Inhibitory ratio” value was 46.2%.

On to `CCOP(=O)(Cc1ccc(C(=O)Nc2ccc(C(F)(F)F)cc2)cc1)OCC` [compound 13], for which the inhibition in vivo at 50 mg/kg in test [2] (setting [3]) was 73.9%; in test [2] (setting [4]) it was 33.7%; in test [2] (setting [5]), 95.4%; in test [2] (setting [6]) it was 64.4%.

In the case of `CCOP(=O)(Cc1ccc(C(=O)N(C)c2ccc(Cl)cc2)cc1)OCC` [compound 14], the inhibition in vivo at 50 mg/kg in test [2] (setting [3]) worked out at 46%; in test [2] (setting [4]) it was 29.3%; in test [2] (setting [6]), 49.4%.

As for `CCOP(=O)(Cc1ccc(C(=O)Nc2ccccc2O)cc1)OCC` [compound 28], in test [1], the “Inhibitory ratio” value is on record as 22.1%.

Consider `CCOP(=O)(Cc1ccc(C(=O)N2CCN(C)CC2)cc1)OCC` [compound 56], for which the “Inhibitory ratio” value in test [1] is given as 23.6%.

As for `CCOP(=O)(Cc1ccc(C(=S)N(C)Cc2ccccc2)cc1)OCC` [compound 68], in test [1], the “Inhibitory ratio” value was determined as 57.2%.

For the molecule `CCOP(=O)(Cc1ccc(C(=O)Nc2ccc([N+](=O)[O-])cc2)cc1)OCC` [compound 18], the inhibition in vivo at 50 mg/kg came to 54.4% in test [2] (setting [3]), 32.7% in test [2] (setting [4]), 74.9% in test [2] (setting [5]) and 37.5% in test [2] (setting [6]).

As for `CCOP(=O)(Cc1ccc(C(=O)N(Cc2ccc(Cl)cc2)c2ccc(Cl)c(Cl)c2)cc1)OCC` [compound 17], the inhibition in vivo at 50 mg/kg in test [2] (setting [3]) was 56.8%; in test [2] (setting [4]), 27.8%; in test [2] (setting [5]), 94.1%; in test [2] (setting [6]), 64.4%.

`CCOP(=O)(Cc1ccc(C(=O)N(Cc2ccccc2)c2ccc(OC)c(OC)c2)cc1)OCC` [compound 53]: the “Inhibitory ratio” value in test [1] was 59.0%.

Take `CCOP(=O)(Cc1ccc(C(=O)Nc2ccc(I)cc2)cc1)OCC` [compound 16]: the inhibition in vivo at 50 mg/kg in test [2] (setting [3]) came to 94.1%; in test [2] (setting [4]), 64%; in test [2] (setting [5]), 95.3%; in test [2] (setting [6]), 75.1%.

Consider `CCOP(=O)(Cc1ccc(C(=O)N(Cc2ccccc2)c2ccc(C(F)(F)F)cc2)cc1)OCC` [compound 12], for which the inhibition in vivo at 50 mg/kg in test [2] (setting [3]) came out at 60.4%; in test [2] (setting [4]), 36.9%; in test [2] (setting [5]), 83.9%.

Take `CCOP(=O)(Cc1ccc(C(=O)N(Cc2ccccc2)c2ccccc2F)cc1)OCC` [compound 47]: in test [1], the “Inhibitory ratio” value was 67.2%.

Take `CCOP(=O)(Cc1ccc(C(=O)Nc2ccc(F)cc2)cc1)OCC` [compound 20]: the inhibition in vivo at 50 mg/kg in test [2] (setting [3]) was 57.3%; in test [2] (setting [4]), 27%; in test [2] (setting [5]) it was 90.5%; in test [2] (setting [6]), 55.1%.

On to `CCOP(=O)(Cc1ccc(C(=S)N(Cc2ccccc2)Cc2ccccc2)cc1)OCC` [compound 69], for which the “Inhibitory ratio” value in test [1] is 85.3%.

`CCOP(=O)(Cc1ccc(C(=O)N(Cc2ccccc2)Cc2ccccc2)cc1)OCC` [compound 54]: the “Inhibitory ratio” value in test [1] was 69.7%.

On to `CCOP(=O)(OCC)C(Cc1ccccc1)c1ccc(C(=O)N(Cc2ccccc2)c2cccc(C(F)(F)F)c2)cc1` (centres unmarked) [compound 51], for which the “Inhibitory ratio” value in test [1] amounted to 70.4%.

For `CCOP(=O)(Cc1ccc(C(=O)N2CCN(c3ccccc3C)CC2)cc1)OCC` [compound 57], in test [1], the “Inhibitory ratio” value was determined as 41.9%.

On to `CCOP(=O)(Cc1ccc(C(=O)N(Cc2ccccc2)c2ccc(C)cc2)cc1)OCC` [compound 46], for which the “Inhibitory ratio” value in test [1] is listed as 59.1%.

As for `CCOP(=O)(Cc1ccc(C(=O)N(Cc2ccccc2)c2ccc(OC)cc2)cc1)OCC` [compound 48], the “Inhibitory ratio” value in test [1] turned out to be 63.7%.

As to `CCOP(=O)(Cc1ccc(C(=O)N(Cc2cccc(C(F)(F)F)c2)c2ccccc2)cc1)OCC` [compound 40], the “Inhibitory ratio” value in test [1] was 91.6%.
